Here are results for 6 molecules from DBAASP.

Each structure is given as a SMILES string. ≈ marks a conversion by molar mass, not a printed value. A value given as a limit tells only on which side of the number the result lay.

Some test systems named below: Streptococcus pyogenes; Escherichia coli NDM; Staphylococcus aureus MR.
What all share (test): ≥ marks a high value that may be exact or a test limit, other limits are often not marked, values filed in µg/mL are converted to µM
Assay [1] deals with Enterococcus faecium ATCC 29212.
Assay [2] deals with Malassezia furfur KCTC 7744.
The test system of assay [3] is Escherichia coli O157:H7 ATCC 43895.
The test system of assay [4] is Trichosporon beigelii KCTC 7707.
Assay [5] concerns Vibrio vulnificus ATCC 29307.
The subject of assay [6] is Streptococcus mutans KCTC 3065.
Assay [7] relates to Staphylococcus aureus ATCC 25923.
For assay [8], the system named is Pseudomonas aeruginosa ATCC 27853.
In assay [9] the test system is Candida albicans ATCC 90028.
For assay [10], the system named is Escherichia coli ATCC 25922.
The test system of assay [11] is Staphylococcus aureus ATCC 6538P.
Assay [12] relates to Pseudomonas aeruginosa ATCC 10148.
Assay [13] concerns Escherichia coli ATCC 9723H.
Assay [14] deals with Bacillus cereus ATCC 1015.
Assay [15] concerns Staphylococcus epidermidis ATCC 1114.
Assay [16] concerns Leuconostoc mesenteroides ATCC 1059.
The test system of assay [17] is Staphylococcus aureus VRSA1.
The test system of assay [18] is Klebsiella pneumoniae ATCC 700603.
The subject of assay [19] is Klebsiella pneumoniae ATCC BAA-2146.
Assay [20] deals with Pseudomonas aeruginosa FADDI-PA070.
For assay [21], the system named is Streptococcus pneumoniae ATCC 700677.
The subject of assay [22] is Staphylococcus aureus ATCC 43300.
For assay [23], the system named is Staphylococcus aureus VRSA10.
Assay [24] deals with Staphylococcus aureus NRS 17.
Assay [25] concerns Acinetobacter baumannii ATCC 19606.
The subject of assay [26] is Staphylococcus aureus NRS 1.
For assay [27], the system named is Staphylococcus epidermidis ATCC 12228.
In assay [28] the test system is Cutibacterium acnes PCM 2334.
For assay [29], the system named is Cutibacterium acnes PCM 2400.
The test system of assay [30] is Vibrio harveyi ATCC 14126.
The test system of assay [31] is Streptococcus iniae FP5228.
For assay [32], the system named is Edwardsiella piscicida FSW 910410.
The test system of assay [33] is Streptococcus parauberis KSP 28.
The test system of assay [34] is Vibrio campbellii KCCM 40684.
Assay [35] relates to Streptococcus parauberis PH0710.
For assay [36], the system named is Vibrio ordalii KCCM 41669.
Assay [37] has as its system Vibrio anguillarum TR14001NF.
Assay [38] concerns Vibrio alginolyticus KCCM 2928.

By MIC is commonly meant the smallest concentration in the dilution series that meets the test's criterion for growth inhibition. Low values mean greater potency, high ones weaker potency.

With `CSCC[C@H](NC(=O)CNC(=O)[C@H](C)NC(=O)[C@H](C)N)C(=O)NCC(=O)N[C@@H](Cc1ccccc1)C(=O)N[C@@H](Cc1ccccc1)C(=O)NCC(=O)N[C@@H](C)C(=O)N[C@@H](CCCN=C(N)N)C(N)=O` [AAGMGFFGAR], the MIC in [1] was 25.4 µM (≈ 25 µg/mL); in [2], at least 50.9 µM; in assay [3], 12.7 µM (≈ 12.5 µg/mL); in assay [4], 12.7 µM (≈ 12.5 µg/mL); in assay [5], 25.4 µM (≈ 25 µg/mL); in [6] it was 12.7 µM (≈ 12.5 µg/mL). For the same molecule, the MIC in assay [7] came to 25.4 µM (≈ 25 µg/mL); in assay [8] it was 12.7 µM (≈ 12.5 µg/mL); in [9] it was 25.4 µM (≈ 25 µg/mL).

Turning to `CC[C@H](C)[C@H](NC(=O)[C@@H](NC(=O)[C@@H]1CCCN1C(=O)[C@H](Cc1ccccc1)NC(=O)[C@@H](N)Cc1ccccc1)[C@@H](C)CC)C(=O)N[C@@H](C)C(=O)N[C@@H](CCCN=C(N)N)C(=O)N[C@@H](CC(C)C)C(=O)N[C@@H](C)C(=O)N[C@@H](C)C(=O)N[C@@H](CCCCN)C(=O)N[C@H](C(=O)N[C@H](C(=O)N1CCC[C@H]1C(=O)N[C@@H](CO)C(=O)N[C@@H](CC(C)C)C(=O)N[C@H](C(=O)N[C@@H](CS)C(=O)N[C@@H](C)C(=O)N[C@H](C(=O)N[C@H](C(=O)N[C@@H](CCCCN)C(=O)N[C@@H](CCCCN)C(=O)N[C@@H](CS)C(=O)O)[C@@H](C)O)C(C)C)C(C)C)[C@@H](C)CC)C(C)C` [FFPIIARLAAKVIPSLVCAVTKKC], the MIC in assay [10] was 3.46 µM (≈ 8.97 µg/mL); against Streptococcus pyogenes, at least 35 µM; in [11] it was 1.73 µM (≈ 4.48 µg/mL); in assay [12], at least 35 µM; in assay [13], 4.24 µM (≈ 11 µg/mL); against Escherichia coli NDM it was 3.46 µM (≈ 8.97 µg/mL).

As for `CC[C@H](C)[C@H](NC(=O)[C@H](CC(C)C)NC(=O)[C@@H]1CCCN1C(=O)[C@H](CC(C)C)NC(=O)[C@@H](N)Cc1ccccc1)C(=O)NCC(=O)N[C@@H](CCCCN)C(=O)N[C@@H](CC(C)C)C(=O)N[C@@H](CC(C)C)C(=O)N[C@@H](CO)C(=O)NCC(=O)N[C@@H](CC(C)C)C(=O)N[C@@H](Cc1ccc(O)cc1)C(N)=O` [FLPLIGKLLSGLY], the MIC in assay [14] turned out to be 20.9 µM (≈ 30 µg/mL); in assay [15], 20.9 µM (≈ 30 µg/mL); in assay [16] it was 6.97 µM (≈ 9.99 µg/mL); against Staphylococcus aureus MR it was 20.9 µM (≈ 30 µg/mL).

For the molecule `CC[C@H](C)[C@H](NC(=O)[C@@H](N)CC(C)C)C(=O)NCC(=O)N[C@@H](CC(C)C)C(=O)N[C@H](C(=O)N[C@@H](CO)C(=O)N[C@@H](CCCCN)C(=O)NCC(=O)N[C@H](C(=O)N[C@@H](CO)C(=O)N[C@H](C(=O)N[C@@H](CC(C)C)C(=O)N[C@H](C(=O)N[C@@H](CCCCN)C(=O)N[C@H](C(=O)N[C@H](C(=O)N[C@@H](CO)C(=O)N[C@@H](CCCCN)C(=O)N[C@@H](CCCCN)C(=O)N[C@H](C(=O)N[C@@H](CC(C)C)C(=O)N[C@@H](CCCCN)C(=O)N[C@@H](CCC(N)=O)C(N)=O)C(C)C)C(C)C)[C@@H](C)O)C(C)C)C(C)C)[C@@H](C)O)C(C)C` [LIGLVSKGTSVLVKTVSKKVLKQ], the MIC in assay [17] was 9.6 µM (≈ 23.3 µg/mL); in assay [18], over 9.6 µM; in assay [19], 9.6 µM (≈ 23.3 µg/mL); in assay [10], over 9.6 µM; in assay [20], 9.6 µM (≈ 23.3 µg/mL); in [21], 9.6 µM (≈ 23.3 µg/mL). Further, the MIC in assay [22] was over 9.6 µM; in assay [8], over 9.6 µM; in [23], 9.6 µM (≈ 23.3 µg/mL); in assay [24], 9.6 µM (≈ 23.3 µg/mL); in assay [25] it was over 9.6 µM; in assay [26] it was 9.6 µM (≈ 23.3 µg/mL).

With `CC(C)C[C@H](NC(=O)[C@H](CO)NC(=O)[C@H](CCCCN)NC(=O)[C@H](CO)NC(=O)[C@H](C)NC(=O)[C@H](Cc1ccccc1)NC(=O)[C@H](Cc1ccccc1)NC(=O)[C@H](CCCN=C(N)N)NC(=O)CNC(=O)[C@H](Cc1ccc(O)cc1)NC(=O)[C@H](CC(=O)O)NC(=O)[C@H](CS)NC(=O)[C@H](CCCN=C(N)N)NC(=O)[C@@H](N)CC(C)C)C(=O)N[C@@H](Cc1ccc(O)cc1)C(=O)N[C@@H](CC(=O)O)C(=O)N1CCC[C@H]1C(=O)N[C@@H](CC(C)C)C(=O)N[C@@H](CCCCN)C(=O)N[C@@H](CCCCN)C(=O)N[C@@H](CCCN=C(N)N)C(=O)N[C@@H](CCCN=C(N)N)C(=O)O` [LRCDYGRFFASKSLYDPLKKRR], the MIC was 91.9 µM (≈ 250 µg/mL) in assay [27]; over 735 µM in assay [10]; 11.5 µM (≈ 31.3 µg/mL) in assay [28]; 91.9 µM (≈ 250 µg/mL) in assay [7]; over 735 µM in assay [8]; 23 µM (≈ 62.5 µg/mL) in assay [29].

As for `CC(C)C[C@H](NC(=O)[C@H](Cc1cnc[nH]1)NC(=O)CNC(=O)[C@@H]1CCCN1C(=O)[C@@H](NC(=O)[C@H](CCC(N)=O)NC(=O)[C@H](Cc1cnc[nH]1)NC(=O)[C@H](CC(C)C)NC(=O)[C@@H](NC(=O)[C@H](CCCCN)NC(=O)[C@@H]1CCCN1C(=O)[C@H](CC(C)C)NC(=O)[C@@H](N)Cc1ccc(O)cc1)C(C)C)[C@@H](C)O)C(=O)N[C@@H](CCCCN)C(=O)N1CCC[C@H]1C(=O)O` [YLPKVLHQTPGHLKP], the minimal inhibitory concentration (MIC) was at least 51.1 µM in assay [30]; at least 51.1 µM in assay [31]; at least 289 µM in [32]; at least 289 µM in assay [33]; at least 289 µM in assay [34]; at least 205 µM in assay [35]. The MIC in [36], in [37] and in [38] was at least 289 µM each time.
